Assay results: patent publication US20240382597A1, “FORMULATIONS OF ANTI-INFLAMMATORY AGENTS COMPRISING MSM WITH ENHANCED SOLUBILITY IN WATER” (LIVIONEX, Inc., priority 2021, published 2024)

How the values were obtained:
[1] = solubility in water of anti-inflammatory agents, alone and in formulations comprising MSM; type: physicochemical
Description: The increases in solubility in water of certain representative anti-inflammatory agents in formulations comprising MSM (about 5.4% w/w; range between 0.1 wt. % to about 15 wt. %, typically around 5%) are as follows: […]

[2] = at 79° F.; cited from earlier work
[3] = in formulations comprising MSM (about 5.4% w/w; range 0.1 wt. % to about 15 wt. %)
[4] = without MSM (starting value of the increase)

SMILES	solubility in water [1, 3]	solubility in water [1, 4]	water solubility [2] [% w/v]
C[C@@H]1C[C@H]2[C@@H]3CCC4=CC(=O)C=C[C@]4(C)[C@@]3(F)[C@@H](O)C[C@]2(C)[C@@]1(O)C(=O)CO [Dexamethsone, dexamethasone]	~250 mg per ml of water	insoluble	–
CS(C)(=O)=O [MSM, methylsulfonylmethane]	–	–	34

Now from value to compound, other results behind:

solubility in water [1, 3]	solubility in water [1, 4]	SMILES	water solubility [2] [% w/v]
50 mg per ml of water	0.004 mg per ml of water	O=C(O)Cc1ccccc1Nc1c(Cl)cccc1Cl [Diclofenac, diclofenac]	–
~150 mg per ml of water	insoluble	CC(C)Cc1ccc(C(C)C(=O)O)cc1 (stereo not drawn) [Ibuprofen, ibuprofen]	–
0.013 mg per ml of water	0.00065 mg per ml of water	COC(=O)c1ccccc1O [Methyl salicylate, methyl salicylate]	–
